Assay results published in patent publication US20100273783A1, “Compositions and Methods for Treating and Preventing Overactive Bladder and Conditions Associated Therewith” (OPTMED, INC., priority 2009, published 2010).
Like-named read-outs stand apart in the source and are kept apart here.

Tests used:
M-1 receptors = biological target: T1, M-1 receptors (Homo sapiens, UniProt P11229); details: cited from earlier work
T1 sequence (P11229 1-460): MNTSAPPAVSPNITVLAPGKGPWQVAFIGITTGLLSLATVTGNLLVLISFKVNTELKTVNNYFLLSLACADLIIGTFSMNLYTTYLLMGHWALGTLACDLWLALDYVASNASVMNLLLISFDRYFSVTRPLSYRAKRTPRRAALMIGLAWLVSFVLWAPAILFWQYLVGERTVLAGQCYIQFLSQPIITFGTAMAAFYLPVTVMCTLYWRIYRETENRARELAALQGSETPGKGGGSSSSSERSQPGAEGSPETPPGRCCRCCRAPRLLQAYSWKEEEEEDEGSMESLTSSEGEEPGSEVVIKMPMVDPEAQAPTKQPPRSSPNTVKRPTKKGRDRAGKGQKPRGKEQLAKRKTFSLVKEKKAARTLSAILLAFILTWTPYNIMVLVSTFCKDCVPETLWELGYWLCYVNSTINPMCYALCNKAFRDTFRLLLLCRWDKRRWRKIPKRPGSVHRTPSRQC

[1] = cited from earlier work; for adverse effects stated in the background text: no dose given
overactive bladder (OAB) = test: Case reports of subjects with OAB treated with local diazepam; assay type: in vivo, human
Procedure: A person had been suffering from symptoms consistent with OAB for several months. Following a confirmatory diagnosis of OAB, the subject was instructed to use vaginal suppositories containing 20 mg of diazepam in a glycerine base three times a day. […] The subject continues to do well on a maintenance dose of 20 mg once or twice a day.
A person had been suffering from symptoms consistent with OAB for several months. A diagnosis of OAB was confirmed by an urologist. A nurse then administered intraurethrally to the subject 2 ml of a gel formulation containing 10 mg/ml of diazepam in 2% methylcellulose, providing a total dose of 20 mg of diazepam. […] This subject is able to treat themself at home using the same type of formulation and the same route of administration up to 3 times per day as needed.
His symptoms were not relieved with high doses of oral diazepam but were well-controlled by intraurethral instillations of 2 ml of diazepam in a gel formulation containing 10 mg/ml of diazepam in hydroethylcellulose, providing a total of 20 mg of diazepam administered at bedtime.
A person with advanced dementia suffered from OAB symptoms including nocturia and urge incontinence. Despite the use of incontinence pads, the subject would frequently arise throughout the night without requesting assistance to go the bathroom. This led to numerous falls.

anesthetized rats = test: Cystometries (isovolumetric bladder contractions) in anesthetized rats; assay type: in vivo
Procedure: Effect of diazepam administered intravenously and intravaginally on cystometries in anesthetized rats.
Methods: Female rats were anesthetized with urethane (1.3 g/kg intraperitoneally) given as a divided dose of 80% initially and 20% 15 minutes later. Body temperature was maintained at 37±2° C. throughout the experiment. A catheter was inserted into the bladder through the urethra. Then, the urethra was ligated at the level of the urinary meatus. After an abdominal incision, the ureters were also ligated. The jugular vein was catheterized to allow administration of test compounds. The bladder catheter was connected via a T-tube to a strain gauge to measure intravesicular pressure. Isovolumetric bladder contractions were induced by stepwise injections of physiological saline at room temperature (100 μl every 5 min) until stable rhythmic bladder contractions occurred. After stabilization and a control period of at least 30 min, characterized by stable and reproducible bladder contractions (used as basal values), test substance or vehicle was administered i.v. (as a bolus under a volume of 200 μl) or i.vag. (under a volume of 100 μl using a syringe). The drug effects were evaluated for 1 hour following the end of administration. Each animal received one dose of one test substance.

[2] = in vivo; cited from earlier work
[3] = Example 6, intraurethral 1 ml gel 20 mg/ml in 3% hydroxyethylcellulose three times per day
[4] = intravaginal, vs basal values, through 30 minutes post administration

NC(=O)C(c1ccccc1)(c1ccccc1)[C@@H]1CCN(CCc2ccc3c(c2)CCO3)C1 [darifenacin]
affinity for M-1 receptors (M-1 receptors): reduced affinity for M-1 receptors
Adverse Events ([1]; 7.5 mg per day, constipation): constipation
Adverse Events ([1]; 7.5 mg per day, dry mouth): dry mouth
Adverse Events ([1]; 15 mg per day, constipation): constipation
Adverse Events ([1]; 15 mg per day, dry mouth): dry mouth
Adverse Events ([1]; 15 mg per day, dyspepsia): dyspepsia

CN1C(=O)CN=C(c2ccccc2)c2cc(Cl)ccc21 [diazepam, 7-chloro-1,3-dihydro-1-methyl-5-phenyl-2H-1,4-benzodiazepin-2-one]
symptoms of urgency, frequency and incontinence (overactive bladder (OAB); Example 3, person, vaginal suppositories 20 mg in glycerine base three times a day): greatly reduced
cognitive impairment (overactive bladder (OAB); Example 3, vaginal suppositories 20 mg in glycerine base three times a day): No cognitive impairment was observed or reported
cognitive impairment (overactive bladder (OAB); Example 4, intraurethral 2 ml gel 10 mg/ml in 2% methylcellulose (20 mg)): without causing any observable cognitive impairment
OAB symptoms (overactive bladder (OAB); Example 4, person, intraurethral 2 ml gel 10 mg/ml in 2% methylcellulose (20 mg)): reduced OAB symptoms significantly
adverse effects (overactive bladder (OAB); Example 5, intraurethral 2 ml gel 10 mg/ml (20 mg) at bedtime): did not suffer any adverse effects
symptoms (nocturia, nighttime urinary incontinence) (overactive bladder (OAB); Example 5, intraurethral 2 ml gel 10 mg/ml in hydroethylcellulose (20 mg) at bedtime): well-controlled
symptoms (nocturia, nighttime urinary incontinence) (overactive bladder (OAB); Example 5, person, high doses of oral diazepam): not relieved
adverse effects (overactive bladder (OAB); [3]): no apparent adverse effects
cognitive impairment (overactive bladder (OAB); [3]): without causing cognitive impairment
daytime urgency (overactive bladder (OAB); [3]): reduced daytime urgency
nighttime falls (overactive bladder (OAB); [3]): near-absence of nighttime falls
nocturia (sleep through the night) (overactive bladder (OAB); [3]): able to sleep in bed throughout the night without arising to urinate
cognitive impairments (overactive bladder (OAB); Example 6, person, oral antimuscarinic and oral diazepam): led to cognitive impairments which increased the number of falls from bed
reductions in micturition frequency and amplitude, intravaginal compared with intravenous (anesthetized rats; intravaginal vs intravenous administration): comparable to those achieved by intraveneous administration
micturition amplitude (threshold for voiding) (anesthetized rats; [4]): significant reductions
micturition frequency (anesthetized rats; [4]): significant reductions

CC(C)C(=O)Oc1ccc(CO)cc1[C@H](CCN(C(C)C)C(C)C)c1ccccc1 [fesoterodine]
Adverse Events ([1]; 4 mg or 8 mg QD, constipation): constipation
Adverse Events ([1]; 4 mg or 8 mg QD, dry mouth): dry mouth
Adverse Events ([1]; 4 mg or 8 mg QD, urinary tract infection): urinary tract infection
adverse effects stated in the background text [1]: associated with constipation, dry mouth and sometimes urinary tract infection

CCN(CC)CC#CCOC(=O)C(O)(c1ccccc1)C1CCCCC1 (stereo not drawn) [oxybutynin chloride]
Adverse Events ([1]; 3.9 mg transdermal per day, dry mouth): dry mouth
Adverse Events ([1]; 3.9 mg transdermal per day, erythema): erythema
Adverse Events ([1]; 3.9 mg transdermal per day, pruritis): pruritis
adverse effects stated in the background text [1]: highly associated with adverse cognitive effects and effects on sleep architecture and quality

O=C(O[C@H]1C[C@H]2CC[C@@H](C1)[N+]21CCCC1)C(O)(c1ccccc1)c1ccccc1 [trospium chloride]
fraction excreted completely active [2]: 60%
Adverse Events ([1]; 20 mg × 2 per day, constipation): constipation
Adverse Events ([1]; 20 mg × 2 per day, dry mouth): dry mouth
